Several values for one entry are separate records, joined by “and”; a condition that tells them apart may be missing. Identical values can stand only once. Like-named read-outs stand apart in the source and are kept apart here.
Tests used:
HIV = assay: Inhibition of HIV-induced cytopathogenicity in MT4 cells; assay type: cell-based; details: for EC50: 50% reduction in the cytopathic effect of HIV for MT4 cells, 5 days, read-out: HIV-induced cyto-pathogenicity ED50; for HIV-induced cyto-pathogenicity S.I.: Selectivity index or ratio of CD50 to ED50, MT4 cells
Protocol: HTLV-IIIB (designated HIV) was derived from a pool of American patients with AIDS, and obtained from the supernatant of HIV-infected H9 cell cultures (see M. Popovic et al, Science 224, 497-500 (1984)).
FddUrd, the unsubstituted analogue and other 3′-fluoro- and 3′-azido-substituted analogues were evaluated for their inhibitory effects on HIV-induced cytopathogenicity in MT4 cells (Table 1, fig. 2).

Molt/4F = assay: Cytostatic effect (cell proliferation, Coulter count); assay type: cell-based; details: Homo sapiens, cell number reduced by 50%, 68-72 hours, read-out: ID50 Molt/4F
Protocol: (§1) Raji/0 cells and Raji/TK⁻ (a thymidine (dThd) kinasedeficient mutant cell line derived from wild-type Raji/0 cells, were grown in 75 cm² plastic tissue culture flasks (International Medical, Brussels, Belgium), in Eagle's minimal essential medium, supplemented with 10% (v/v) inactivated foetal calf serum (Gibco, Glasgow, Scotland, U.K.), 2 mM L-glutamine (Flow Laboratories, Irvine, Scotland, U.K.) and 1% THM (5 mM Tes, 7.5 mM Hepes and 5 mM (MOPS) buffer ([…]). The Raji/0 and Raji/TK⁻ cells were characterized according to J. Balzarini et al (Biochem. Pharmacol. 31, 1089-1095 (1982)). Molt/4F, CEM and H9 cells were grown in Eagle's minimal essential medium, supplemented with 10% (v/v) inactivated foetal calf serum and 2 mM L-glutamine. MT4 cells were cultivated in RPMI 1640 medium (Gibco) containing 20 mM Hepes buffer, 10% (v/v) inactivated foetal calf serum (Gibco) and 2 mM L-glutamine (Flow Laboratories).
(§2) All assays were performed in flat bottom Microtest III Plates (96 wells) (Falcon) as previously described by E. De Clercq et al (Mol. Pharmacol. 19, 321-330 (1981)). Briefly, the cells were suspended in growth medium and added to the microplate wells at a density of 7.5 x 10⁴ cells/well (200 µ1) in the presence of varying concentrations of the test compounds. The cells were then allowed to proliferate for 68-72 hours at 37°C in a humidified, CO₂-controlled atmosphere. At the end of the incubation period, the cells were counted with a Coulter Counter (Coulter Electronics Ltd., Harpenden Herts, U.K.). The 50% inhibitory dose (ID₅₀) was defined as the concentration of compound that reduced the number of cells by 50%.

MT4 = assay: as above; assay type: cell-based; details: Homo sapiens, cell number reduced by 50%, 68-72 hours, read-out: ID50 MT4
Protocol: as §1, §2

H9 = assay: as above; assay type: cell-based; details: Homo sapiens, cell number reduced by 50%, 68-72 hours, read-out: ID50 H9
Protocol: as §1, §2

Raji/TK- = assay: as above; assay type: cell-based; details: Homo sapiens, cell number reduced by 50%, 68-72 hours, read-out: ID50 Raji/TK-
Protocol: as §1, §2

Raji/0 = assay: as above; assay type: cell-based; details: Homo sapiens, cell number reduced by 50%, 68-72 hours, read-out: ID50 Raji/0
Protocol: as §1, §2

CEM = assay: as above; assay type: cell-based; details: Homo sapiens, CCRF-CEM; cell number reduced by 50%, 68-72 hours; read-out: ID50 CEM
Protocol: as §1, §2

MOLT/4F CELL DNA = assay: Incorporation of radiolabelled precursors into Molt/4F cell DNA; assay type: cell-based, human; details: for IC50: Homo sapiens, Molt/4F cell DNA, 20-24 hours; for stimulatory effect on (5-3H)dCyd incorporation into DNA: as compared to the control
Protocol: The impact of ddUrd and the 3′-fluoro- and 3′-azido-substituted pyrimidine 2′,3′-dideoxynucleoside analogues on cellular DNA biosynthesis was evaluated by monitoring the effect of these compounds on the incorporation of radio- labelled (1′,2′-³H)dUrd (specific radioactivity 27 Ci/mmol), (methyl-³H)dThd (specific radioactivity […]) and (5-³H)dCyd (specific radioactivity 20 Ci/mmol) into DNA of Molt/4F cells.
The incorporation of radiolabelled precursors into Molt/4F cellular DNA was measured in microtest III plates (96 wells) (Flacon) as previously described (J. Balzarini et al, Mol. Pharmacol. 23, 175-181 (1983)). Shortly, to each well of the microplate were added 10⁵ Molt/4F cells and 0.25 µCi of (1′,2′-³H)dUrd, (methyl³H)dThd or (5-³H)dCyd. The cells were allowed to proliferate for 20-24 hours at 37°C in a humidified CO₂-controlled atmosphere. At the end of this incubation period, the contents of the wells (200 µ1) were brought onto 25-mm glass-fibre filters (type A/E, Gelman Instrument Company, Ann Arbor, Mich., USA) and washed twice with cold phosphate-buffered saline, twice with cold 10% trichloroacetic acid (TCA), twice with cold 5% TCA, once with ethanol and once with ether. The filters were then assayed for radioactivity in a toluene-based scintillant.

Molt/4F cells = assay: Tritium release from (5-3H)dUrd or (5-3H)dCyd in intact Molt/4F cells; assay type: cell-based; details: Homo sapiens
Protocol: Briefly, 10⁷ Molt/4F cells/ml were preincubated with an appropriate amount of test compound for 15 min at 37°C. After this incubation period, radiolabelled (5-³H)dUrd or (5-³H)dCyd (100 µCi/ml; 0.1 µM) were added, and at various times (0, 15, 30, 45, 60 min), 100 µl of the reaction mixture was withdrawn, and mixed with 500 µl of a cold suspension of carbon black (100 mg/ml) in 5% TCA. After centrifugation at 1000 g for 10 min, the supernatants were analysed for radioactivity.

MT4 cells = assay: Cytotoxicity for non-infected MT4 cells (viable cell count)
Protocol: Then 100 µl of the infected cell suspension was added to 100 µl of an appropriate dilution of test compound in 200 µ1 wells of a Flat Bottom Microtest III Plate (Falcon, Becton Dickinson, Oxnard, CA, USA) (i.e. 40 CCID₅₀ HIV/200 µ1 well/5 x 10⁴ cells), and further incubated at 37°C in a CO₂-controlled humidified atmosphere.

C3H cells = assay: Cytotoxicity for C3H cells (alteration of normal cell morphology); assay type: cell-based, mouse
[1] = read-out: ID50 (1',2'-3H)dUrd incorporation
[2] = read-out: ID50 (5-3H)dCyd incorporation
[3] = read-out: ID50 (methyl-3H)dThd incorporation
[4] = read-out: ID50 tritium release from (5-3H)dUrd
[5] = 50% reduction of viable cells in non-infected MT4 cell cultures, 5 days
[6] = alteration of normal cell morphology, C3H cells
[7] = Human immunodeficiency virus 1, MT4, 120 h
[8] = read-out: ID50 tritium release from (5-3H)dCyd

Compound | EC50 (HIV) [µM] | HIV-induced cyto-pathogenicity S.I. (HIV) | IC50 (Molt/4F) [µM] | IC50 (MT4) [µM] | IC50 (H9) [µM] | IC50 (Raji/TK-) [µM] | IC50 (Raji/0) [µM] | IC50 (CEM) [µM] | IC50 (MOLT/4F CELL DNA; [1]) [µM] | IC50 (MOLT/4F CELL DNA; [2]) [µM] | IC50 (MOLT/4F CELL DNA; [3]) [µM] | IC50 (Molt/4F cells; [4]) [µM] | HIV-induced cyto-pathogenicity CD50 (MT4 cells; [5]) [µM] | MSV-induced cyto-pathogenicity CD50 (C3H cells; [6]) [µM] | EC50 (HIV; [7]) [µM] | IC50 (Molt/4F cells; [8]) [µM] | further results
CCc1cn([C@H]2C[C@H](F)[C@@H](CO)O2)c(=O)[nH]c1=O [FddEtUrd, 3′-fluoro-2′,3′-dideoxy-5-ethyluridine] | 330 | >1.9 | > 1000 | > 1000 | > 1000 | > 1000 | > 1000 | > 1000 | > 1000 | > 1000 | > 1000 | > 250 | >625 | >400 | – | – | –
O=c1ccn([C@H]2CC[C@@H](CO)O2)c(=O)[nH]1 [ddUrd, 2′-3′-dideoxyuridine] | 210 | > 3 | > 1000 | ≥ 1000 | > 1000 | > 1000 | > 1000 | > 1000 | > 1000 | > 1000 | > 1000 | > 250 | – | – | > 64 | > 250 | HIV-induced cyto-pathogenicity CD50 (MT4 cells): >625 µM; MSV-induced cyto-pathogenicity CD50 (C3H cells): >400 µM
[N-]=[N+]=N[C@H]1C[C@H](n2ccc(=O)[nH]c2=O)O[C@@H]1CO [AzddUrd, 3′-azido-2′,3′-dideoxyuridine] | – | 677 | > 1000 | 364 | > 1000 | > 1000 | ≥ 1000 | 423 | 172 | 725 | > 1000 | 20 | 244 | >400 | – | > 250 | fold more effective against HIV replication than the parent compound ddUrd (HIV): 600 fold; EC50 (HIV; Human immunodeficiency virus 1, 120 h): 0.36 µM
Nc1ccn([C@H]2CC[C@@H](CO)O2)c(=O)n1 [ddCyd, 2′,3′-Dideoxycytidine] | – | 120 | 7 | ≥ 1000 | 243 | 28 | 23 | 6 | 32 | > 1000 | 753 | – | 40 | >400 | 0.3 | – | stimulatory effect on (5-3H)dCyd incorporation into DNA (MOLT/4F CELL DNA; at 200 µM): 1.7 fold; stimulatory effect on (5-3H)dCyd incorporation into DNA (MOLT/4F CELL DNA; at 1000 µM): 2 fold
Nc1ccn([C@H]2C[C@H](F)[C@@H](CO)O2)c(=O)n1 [FddCyd, 3′-fluoro-2′,3′-dideoxycytidine] | – | 1.6 | 24 | > 1000 | > 1000 | 118 | 95 | 7 | 27.3 | > 1000 | > 1000 | – | 26 | >400 | 16 | – | stimulatory effect on (5-3H)dCyd incorporation into DNA (MOLT/4F CELL DNA; at 200 µM): 1.7 fold; stimulatory effect on (5-3H)dCyd incorporation into DNA (MOLT/4F CELL DNA; at 1000 µM): 2 fold
CCc1cn([C@H]2C[C@H](N=[N+]=[N-])[C@@H](CO)O2)c(=O)[nH]c1=O [AzddEtUrd, 3′-azido-2′,3′-dideoxy-5-ethyluridine] | 64 | 6.5 | > 1000 | 160 | > 1000 | > 1000 | > 1000 | > 1000 | > 1000 | > 1000 | > 1000 | 51 | 418 | >200 | > 64 | > 250 | –
CCc1cn([C@H]2CC[C@@H](CO)O2)c(=O)[nH]c1=O [ddEtUrd, 2′,3′-Dideoxy-5-ethyluridine] | > 625 | – | > 1000 | 326 | > 1000 | > 1000 | > 1000 | > 1000 | > 1000 | > 1000 | > 1000 | > 250 | >625 | >400 | – | – | –
O=c1ccn([C@H]2C[C@H](F)[C@@H](CO)O2)c(=O)[nH]1 [FddUrd, 3′-fluoro-2′,3′-dideoxyuridine] | – | 400 | ≥ 1000 | > 1000 | > 1000 | > 1000 | > 1000 | 14 | 16 | > 1000 | > 1000 | 126 | 16 | >400 | 0.04 | > 250 | fold more effective against HIV replication than the parent compound ddUrd (HIV): 5000 fold; fold more potent/effective against HIV than AzddUrd (HIV): 9 fold and 10 fold

Reference: patent EP0316592A2, “3'-Fluoro-2',3'-dideoxyuridine, and its therapeutic application” (Stichting REGA V.Z.W., priority 1987, dated 1989)
